Reference: ChEMBL document CHEMBL1127899, “Potent, acid-stable and orally active macrolide-type motilin receptor agonists, GM-611 and the derivatives” (Bioorg Med Chem Lett, 1994)
In brackets after ≈: the same amount, converted by molar mass.

What was measured:
[1] = test system: Canis familiaris; experiment: Tested for in vivo smooth muscle contractile activity, expressed as MI100 (dose to give 100 of motor index after ig administration).; format: functional, Canis lupus familiaris, Muscle tissue
[2] = target: T1, Motilin receptor (Oryctolagus cuniculus, UniProt A5A4K8); experiment: Concentration required for in vitro motilin receptor binding, expressed as negative logarithm of IC50
T1 sequence (A5A4K8 whole entry): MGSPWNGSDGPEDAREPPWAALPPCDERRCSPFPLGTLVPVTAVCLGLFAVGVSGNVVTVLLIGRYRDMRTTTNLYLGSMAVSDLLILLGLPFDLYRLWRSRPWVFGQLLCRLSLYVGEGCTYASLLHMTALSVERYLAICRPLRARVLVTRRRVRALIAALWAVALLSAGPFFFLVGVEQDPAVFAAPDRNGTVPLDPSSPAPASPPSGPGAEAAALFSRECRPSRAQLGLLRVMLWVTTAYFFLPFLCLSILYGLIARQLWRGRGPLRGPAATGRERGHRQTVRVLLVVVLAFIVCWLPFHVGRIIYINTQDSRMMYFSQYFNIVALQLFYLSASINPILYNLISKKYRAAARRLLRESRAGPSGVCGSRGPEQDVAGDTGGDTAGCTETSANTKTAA

[3] = target: T1, Motilin receptor; experiment: Concentration required for in vitro acid stability with hydrochloric acid solution (pH 2.5 ) at room temperature for 2 hr by assaying the solution for motilin receptor binding
[4] = test system: Canis familiaris; experiment: Tested for in vivo smooth muscle contractile activity, expressed as MI100 (dose to give 100 of motor index after iv administration); format: functional, Canis lupus familiaris, Muscle tissue
[5] = organism: Oryctolagus cuniculus; experiment: Concentration required for in vitro smooth muscle contractile activity of the compound, expressed as negative logarithm of EC50; format: functional; conditions: Muscle tissue
[6] = test system: Streptococcus pneumoniae; experiment: Antibacterial activity against Streptococcus pneumoniae No.12, activity expressed as MIC; format: functional
[7] = test system: Staphylococcus aureus; experiment: Antibacterial activity against Staphylococcus aureus 209P, activity expressed as MIC; format: functional
[8] = test system: Klebsiella pneumoniae; experiment: Antibacterial activity against Klebsiella pneumoniae IFO 3512, activity expressed as MIC; format: functional
[9] = test system: Bacillus subtilis; experiment: Antibacterial activity against Bacillus subtilis ATCC 6633, activity expressed as MIC; format: functional
[10] = test system: Escherichia coli; experiment: Antibacterial activity against Escherichia coli NIHJ JC-2, activity expressed as MIC; format: functional

| Compound | IC50 [2] [µM] | IC50 [3] [µM] | EC50 [5] [µM] | MIC [6] [µg/mL] | MIC [7] [µg/mL] | MIC [8] [µg/mL] | MIC [9] [µg/mL] | MIC [10] [µg/mL] | MI100 [1] [µg/kg] | MI100 [4] [µg/kg] |
| --- | --- | --- | --- | --- | --- | --- | --- | --- | --- | --- |
| CCC1OC(=O)C(C)C(O[C@H]2C[C@@](C)(OC)[C@@H](O)C(C)O2)C(C)[C@@H](OC2OC(C)CC(N(C)C)[C@H]2O)[C@]2(C)CC(C)=C(O2)[C@H](C)C(=O)[C@]1(C)OC (some centres undefined) | 0.00912 | 0.00891 | 0.117 | 3.1 (≈ 4.26 µM) | 13 (≈ 17.9 µM) | 100 (≈ 137 µM) | 6.3 (≈ 8.65 µM) |  | 2.4 | 2.9 |
| CCC1OC(=O)C(C)C(O[C@H]2C[C@@](C)(OC)[C@@H](O)C(C)O2)C(C)[C@@H](OC2OC(C)CC(N(C)C)[C@H]2O)[C@]2(C)CC(C)C3(O[C@]1(C)[C@H](O)[C@H]3C)O2 (some centres undefined) | 0.155 | 0.17 | > 10 |  |  |  |  |  |  | >70 |
| CCC1OC(=O)C(C)C(O[C@H]2C[C@@](C)(OC)[C@@H](O)C(C)O2)C(C)[C@@H](OC2OC(C)CC(N(C)C)[C@H]2O)[C@@](C)(O)C[C@@H](C)C(=O)[C@H](C)[C@@H](O)[C@]1(C)O (some centres undefined) | 0.0437 | 0.0708 | 0.316 | 0.1 (≈ 0.136 µM) | 0.39 (≈ 0.531 µM) | 6.3 (≈ 8.58 µM) | 0.39 (≈ 0.531 µM) | 100 (≈ 136 µM) |  | 32.3 |

Now those with a lower IC50 [2], led by results:

| IC50 [2] [µM] | IC50 [3] [µM] | EC50 [5] [µM] | MIC [6] [µg/mL] | MIC [7] [µg/mL] | MIC [8] [µg/mL] | MIC [9] [µg/mL] | MIC [10] [µg/mL] | Compound | MI100 [1] [µg/kg] | MI100 [4] [µg/kg] |
| --- | --- | --- | --- | --- | --- | --- | --- | --- | --- | --- |
| 0.00603 | 0.00794 | 0.0389 |  |  |  |  |  | CCC1OC(=O)C(C)C(O[C@H]2C[C@@](C)(OC)[C@@H](O)C(C)O2)C(C)[C@@H](OC2OC(C)CC(N(C)C(C)C)[C@H]2O)[C@]2(C)CC(C)=C(O2)[C@H](C)C(=O)[C@]1(C)OC (some centres undefined) | 1.5 | 1 |
| 0.0038 | 0.00646 | 0.0437 | 50 (≈ 67.4 µM) |  |  |  |  | CCC1OC(=O)C(C)C(O[C@H]2C[C@@](C)(OC)[C@@H](O)C(C)O2)C(C)[C@@H](OC2OC(C)CC(N(C)CC)[C@H]2O)[C@]2(C)CC(C)=C(O2)[C@H](C)C(=O)[C@]1(C)OC (some centres undefined) | 4.3 | 1.1 |
| 0.00339 | 0.224 | 0.0417 |  |  |  |  |  | CC[C@H]1OC(=O)[C@H](C)[C@@H](O[C@H]2C[C@@](C)(OC)[C@@H](O)[C@H](C)O2)[C@H](C)[C@@H](O[C@@H]2O[C@H](C)C[C@H](N(C)C)[C@H]2O)[C@@]2(C)CC(C)=C(O2)[C@H](C)[C@@H](O)[C@]1(C)O |  | 1 |
| 0.00316 | 0.302 | 0.0479 | 25 (≈ 34.2 µM) |  |  | 100 (≈ 137 µM) |  | CCC1OC(=O)C(C)C(O[C@H]2C[C@@](C)(OC)[C@@H](O)C(C)O2)C(C)[C@@H](OC2OC(C)CC(N(C)CC)[C@H]2O)[C@]2(C)CC(C)=C(O2)[C@H](C)[C@@H](O)[C@]1(C)O (some centres undefined) | 14.9 | 0.9 |
